# Source: patent US7148218B2 (priority 2001, dated 2006)
# Where two headings read alike, the source gives them in different places.
# Key:
# Assay in all cases: cells
# [1] = tested on: HCT 116 colon carcinoma; format: cell-based; conditions: 3-day exposure, average of two or more separate experiments, read-out: IC50 HCT116
# Source text: (§1) As indicated above, all of the compounds of formula I are anti-tumor agents and are, therefore, useful in inhibiting the growth of various lymphomas, sarcomas, carcinomas, myelomas, and leukemia cell lines. […] This assay was adapted from the 60 cell line assay used by the National Cancer Institute (NCI) with the following modifications: • 1) four cell lines representative for the important tumor types, viz., MIP 101 colon carcinoma, HCT 116 colon carcinoma, 1A9 ovarian carcinoma and 1A9PTX22 ovarian carcinoma, were utilized; and 2) a tetrazolium derivative, viz., MTT, was utilized to determine cell density.
# (§2) The ADGMA compares the number of viable cells following a 3-day exposure to a test compound relative to the number of cells present at the time the test compound was added. […] The absorbance at 540 nm (A540) of the formazan derivative is proportional to the number of viable cells. The IC50 for a test compound is the concentration of compound required to reduce the final cell number to 50% of the final control cell number. If cell proliferation is inhibited, the assay further defines compounds as cytostatic (cell number after 3-day compound incubation >cell number at time of compound addition) or cytotoxic (cell number after 3-day compound incubation <cell number at time of compound addition).
# The HCT 116 colon carcinoma cell line was obtained from the American Type Culture Collection (ATCC, Rockville, Md.). The MIP 101 colon carcinoma cell line was obtained from Dr. Robert Kramer (Bristol Meyers Squibb) and was previously described (Niles R M, Wilhelm S A, Steele G D JR, Burke B, Christensen T, Dexter D, O'Brien M J, Thomas P, Zamcheck N. Isolation and characterization of an undifferentiated human colon carcinoma cell line (MIP-101). Cancer Invest. 1987;5(6):545–52.). […]
# Cells are trypsinized and counted using a hemacytometer to determine cell concentrations. […] Initial cell densities, assayed one day after plating, are roughly 0.10–0.20 A540 absorbance units greater than the media blank. […]
# [2] = tested on: 1A9PTX22 ovarian carcinoma; format: cell-based, human; conditions: 3-day exposure, paclitaxel-resistant subline, average of two or more separate experiments
# Source text: as §1, §2
# (§3) The HCT 116 colon carcinoma cell line was obtained from the American Type Culture Collection (ATCC, Rockville, Md.). The MIP 101 colon carcinoma cell line was obtained from Dr. Robert Kramer (Bristol Meyers Squibb) and was previously described (Niles R M, Wilhelm S A, Steele G D JR, Burke B, Christensen T, Dexter D, O'Brien M J, Thomas P, Zamcheck N. Isolation and characterization of an undifferentiated human colon carcinoma cell line (MIP-101). Cancer Invest. 1987;5(6):545–52.). The 1A9 and the 1A9PTX22 ovarian tumor cell lines were obtained from Dr. Tito Fojo, Medicine Branch, Division of Clinical Sciences, National Cancer Institute, National Institutes of Health, Bethesda, Md. 20892. The 1A9 is a clone of the ovarian carcinoma cell line, A2780 (Giannakakou P, Sackett, D L, Kang Y-K, Zhan Z, Buters J T M, Fojo T, Poruchynsky MS. Paclitaxel-resistant human ovarian cancer cells have mutant δ-tubulins that impaired paclitaxel-driven polymerization. J. Biol. Chem. 1997, 272(4):17118–17125). The 1A9PTX22 subline was isolated as an individual clone from the 1A9 cell line in a single step selection by exposure to 5 ng/mL paclitaxel in the presence of 5 μg/mL of verapamil. All cell lines were used between passages 4–20 following thawing. MIP-101 colon carcinoma, HCT 116 colon carcinoma, 1A9 ovarian carcinoma and 1A9PTX22 ovarian carcinoma cell lines are maintained and plated in RPMI 1640 medium containing 10% fetal bovine serum.
# (§4) Cells are trypsinized and counted using a hemacytometer to determine cell concentrations. Cells were then plated in their respective maintenance media (200 μL/well) in 96-well plates at the following concentrations: MIP-101, 2000 cells/well; HCT 116, 2000 cells/well; 1A9, 10000 cells/well; and 1A9PTX22, 10000 cells/well. […] Initial cell densities, assayed one day after plating, are roughly 0.10–0.20 A540 absorbance units greater than the media blank. Ninety-six well plates were seeded on day 0 and the test compounds are added on day 1. A “time 0” plate was created that received media only in row A and one cell line/row in rows B–E. The “time 0” plate was processed 24 hours after plating (at the time when drugs were added to experimental plates), as follows: 5 micoliters of the MTT stock solution (0.5 mg/mL in PBS) was added to each well and then incubated for three hours at 37° C., 5% CO2, in a humidified environment. Media was then carefully and completely removed. Plates were allowed to dry in the dark. DMSO (dimethylsulfoxide) was added to each well (100 μL/well) and plates were placed on an orbital shaker for 2 hours. […]
# [3] = tested on: 1A9 ovarian carcinoma; format: cell-based, human; conditions: 3-day exposure, average of two or more separate experiments
# Source text: as §1, §2, §3, §4
# [4] = tested on: MIP 101 colon carcinoma; format: cell-based, human; conditions: 3-day exposure, average of two or more separate experiments, read-out: IC50 MIP101
# Source text: as §1, §2, §3, §4
Molecule,IC50 [1] [nM],IC50 [2] [nM],IC50 [3] [nM],IC50 [4] [nM],"IC50 ([1]; Homo sapiens, HCT-116, 72 h) [nM]","IC50 ([2]; Homo sapiens, 1A9/ptx-22, 72 h) [nM]","IC50 ([3]; Homo sapiens, 72 h) [nM]","IC50 ([4]; Homo sapiens, 72 h) [nM]"
"(2R,3S,4S,5S,7S,8Z,10S,11S,12S,13Z,16S,17R,18S,19S,20S)-19-[(aminocarbonyl)oxy]-3,5,7,11,17-pentahydroxy-2,3,4,10,12,14,16,18,20-nonamethyl-21-(phenylmethoxy)-8,13-heneicosadienoic acid δ-lactone [Ex. 1]",200,180,30,3800,–,–,–,–
"C=C/C=C\[C@H](C)C(OC(N)=O)C(C)C(O)C(C)C(=O)N(C)C[C@H](C)[C@@H](O)[C@@H](C)/C=C\C(O)C[C@@H]1OC(=O)[C@H](C)C(O)C1C (stereo partly drawn) [Ex. 2, (2R,3S,4R,5S,7S,8Z)-13-[[(2R,3S,4S,5S,6S,7Z)-5-[(aminocarbonyl)oxy]-3-hydroxy-2,4,6-trimethyl-1-oxo-7,9-decadienyl]methylamino]-3,5,7,11-tetrahydroxy-2,4,10,12-tetramethyl-8-tridecenoic acid δ-lactone]",–,–,–,–,13000,6000,4000,20000
"CC(=O)O[C@H]1C(=O)[C@@]2(C)[C@H]([C@H](OC(=O)c3ccccc3)[C@]3(O)C[C@H](OC(=O)[C@H](O)[C@@H](NC(=O)c4ccccc4)c4ccccc4)C(C)=C1C3(C)C)[C@]1(OC(C)=O)CO[C@@H]1C[C@@H]2O [paclitaxel, reference compound]",–,–,–,–,0.3,1,47,200
